Tested on: CD8 T cells of HLA-A*0201-transgenic HHD mice
Type: in vivo, mouse

Substance | Immunogenicity when coupled to the surface of the liposomes (HHD mice) | CD8 T-cell immune responses against the native epitope, peptide emulsified in IFA (injected in HHD mice)
1: native hTERT peptide, start position 540 (540–548) (ILAKFLHWL) [Peptide 1] | no immunogenicity | –
14: heteroclitical peptide derived from #13 (p944) (LQAYRFHAV) [Peptide 14] | – | only weak
